The record followed here is patent US11878975B2, “Substituted indole compounds useful as TLR inhibitors” (BRISTOL-MYERS SQUIBB COMPANY, priority 2017, dated 2024).

Bounds are passed on as bounds.

Format in all cases: cell-based
The target in one experiment is T1, human TLR7 (Homo sapiens, UniProt Q9NYK1).
T1 construct: host or cells: HEK-Blue cells
T1 sequence (Q9NYK1 27-1049): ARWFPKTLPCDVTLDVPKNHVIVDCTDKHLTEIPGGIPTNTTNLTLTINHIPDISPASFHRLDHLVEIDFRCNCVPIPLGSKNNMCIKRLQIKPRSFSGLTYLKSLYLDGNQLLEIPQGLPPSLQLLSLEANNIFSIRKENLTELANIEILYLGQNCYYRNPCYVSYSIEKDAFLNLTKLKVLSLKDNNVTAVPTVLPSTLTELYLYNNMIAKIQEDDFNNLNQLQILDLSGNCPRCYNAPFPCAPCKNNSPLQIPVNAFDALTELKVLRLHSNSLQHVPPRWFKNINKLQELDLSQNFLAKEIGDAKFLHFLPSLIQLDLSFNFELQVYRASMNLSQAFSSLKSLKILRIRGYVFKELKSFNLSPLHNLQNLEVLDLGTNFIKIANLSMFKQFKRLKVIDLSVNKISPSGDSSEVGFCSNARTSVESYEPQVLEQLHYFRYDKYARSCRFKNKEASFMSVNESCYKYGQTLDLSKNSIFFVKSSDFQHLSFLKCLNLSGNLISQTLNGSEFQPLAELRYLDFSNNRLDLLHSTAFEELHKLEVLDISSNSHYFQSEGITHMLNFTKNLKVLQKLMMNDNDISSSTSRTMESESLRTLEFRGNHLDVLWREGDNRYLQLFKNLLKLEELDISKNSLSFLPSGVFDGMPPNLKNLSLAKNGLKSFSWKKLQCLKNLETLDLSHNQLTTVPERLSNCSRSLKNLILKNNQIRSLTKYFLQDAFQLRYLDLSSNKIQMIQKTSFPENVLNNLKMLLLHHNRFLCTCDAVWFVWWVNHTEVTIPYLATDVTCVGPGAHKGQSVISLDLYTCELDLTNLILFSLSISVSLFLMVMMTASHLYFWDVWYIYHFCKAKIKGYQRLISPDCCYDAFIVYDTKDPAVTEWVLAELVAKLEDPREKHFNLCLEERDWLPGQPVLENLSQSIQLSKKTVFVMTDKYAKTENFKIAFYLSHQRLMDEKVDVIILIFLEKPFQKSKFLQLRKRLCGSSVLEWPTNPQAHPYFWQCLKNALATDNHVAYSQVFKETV
Put plainly: TLR7 inhibition reporter assay (HEK-Blue cells, SEAP reporter, gardiquimod stimulation). As to conditions: HEK-Blue cells overexpressing human TLR7, SEAP reporter, gardiquimod 7.5 μM. In a few lines:
(§1)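 Percent inhibition is derived from SEAP signal, scaled between agonist-plus-DMSO wells and wells given a known inhibitor. Test compounds (0.05 nM–50 μM) are pre-incubated 30 min at room temperature before agonist addition (TLR7: 7.5 μM gardiquimod; TLR8: 15.9 μM R848; TLR9: 5 nM ODN2006) and 22 h culture at 37 °C.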
(A reporter such as luciferase makes a cellular process visible.)

The next experiment has as its target T2, human TLR8 (Homo sapiens, UniProt Q9NR97).
T2 construct: host or cells: HEK-Blue cells
T2 sequence (Q9NR97 27-1041): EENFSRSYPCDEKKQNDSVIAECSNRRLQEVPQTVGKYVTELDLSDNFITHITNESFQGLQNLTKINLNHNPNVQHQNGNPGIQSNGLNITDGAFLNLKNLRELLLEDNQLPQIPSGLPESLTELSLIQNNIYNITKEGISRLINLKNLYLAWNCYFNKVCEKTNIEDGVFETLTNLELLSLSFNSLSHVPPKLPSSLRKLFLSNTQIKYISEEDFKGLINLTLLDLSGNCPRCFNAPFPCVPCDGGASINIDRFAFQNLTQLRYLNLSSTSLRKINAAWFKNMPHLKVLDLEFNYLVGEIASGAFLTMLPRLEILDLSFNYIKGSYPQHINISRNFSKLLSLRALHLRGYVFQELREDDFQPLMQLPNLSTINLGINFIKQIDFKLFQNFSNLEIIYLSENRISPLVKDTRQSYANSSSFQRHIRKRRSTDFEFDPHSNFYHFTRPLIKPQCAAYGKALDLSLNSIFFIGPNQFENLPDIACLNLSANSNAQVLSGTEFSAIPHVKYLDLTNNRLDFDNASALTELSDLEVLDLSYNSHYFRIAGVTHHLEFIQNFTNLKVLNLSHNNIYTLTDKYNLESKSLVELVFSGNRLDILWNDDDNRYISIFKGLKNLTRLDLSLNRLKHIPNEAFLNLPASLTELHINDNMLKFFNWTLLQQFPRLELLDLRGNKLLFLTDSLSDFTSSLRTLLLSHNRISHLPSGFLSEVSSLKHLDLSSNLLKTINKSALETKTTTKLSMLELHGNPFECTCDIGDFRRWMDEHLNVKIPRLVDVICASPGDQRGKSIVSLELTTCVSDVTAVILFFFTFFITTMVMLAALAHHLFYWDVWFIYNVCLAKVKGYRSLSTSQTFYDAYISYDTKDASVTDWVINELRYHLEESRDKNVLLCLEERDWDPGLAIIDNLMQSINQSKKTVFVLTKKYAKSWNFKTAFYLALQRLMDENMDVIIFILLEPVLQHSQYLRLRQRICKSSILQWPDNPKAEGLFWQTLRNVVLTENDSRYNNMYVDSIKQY
As to the kind of experiment: TLR8 inhibition reporter assay (HEK-Blue cells, SEAP reporter, R848 stimulation). Particulars: HEK-Blue cells overexpressing human TLR8, SEAP reporter, R848 15.9 μM. The method, boiled down:
as §1

For the next experiment, the target named is T3, human TLR9 (Homo sapiens, UniProt Q9NR96).
T3 construct: host or cells: HEK-Blue cells
T3 sequence (Q9NR96 26-1032): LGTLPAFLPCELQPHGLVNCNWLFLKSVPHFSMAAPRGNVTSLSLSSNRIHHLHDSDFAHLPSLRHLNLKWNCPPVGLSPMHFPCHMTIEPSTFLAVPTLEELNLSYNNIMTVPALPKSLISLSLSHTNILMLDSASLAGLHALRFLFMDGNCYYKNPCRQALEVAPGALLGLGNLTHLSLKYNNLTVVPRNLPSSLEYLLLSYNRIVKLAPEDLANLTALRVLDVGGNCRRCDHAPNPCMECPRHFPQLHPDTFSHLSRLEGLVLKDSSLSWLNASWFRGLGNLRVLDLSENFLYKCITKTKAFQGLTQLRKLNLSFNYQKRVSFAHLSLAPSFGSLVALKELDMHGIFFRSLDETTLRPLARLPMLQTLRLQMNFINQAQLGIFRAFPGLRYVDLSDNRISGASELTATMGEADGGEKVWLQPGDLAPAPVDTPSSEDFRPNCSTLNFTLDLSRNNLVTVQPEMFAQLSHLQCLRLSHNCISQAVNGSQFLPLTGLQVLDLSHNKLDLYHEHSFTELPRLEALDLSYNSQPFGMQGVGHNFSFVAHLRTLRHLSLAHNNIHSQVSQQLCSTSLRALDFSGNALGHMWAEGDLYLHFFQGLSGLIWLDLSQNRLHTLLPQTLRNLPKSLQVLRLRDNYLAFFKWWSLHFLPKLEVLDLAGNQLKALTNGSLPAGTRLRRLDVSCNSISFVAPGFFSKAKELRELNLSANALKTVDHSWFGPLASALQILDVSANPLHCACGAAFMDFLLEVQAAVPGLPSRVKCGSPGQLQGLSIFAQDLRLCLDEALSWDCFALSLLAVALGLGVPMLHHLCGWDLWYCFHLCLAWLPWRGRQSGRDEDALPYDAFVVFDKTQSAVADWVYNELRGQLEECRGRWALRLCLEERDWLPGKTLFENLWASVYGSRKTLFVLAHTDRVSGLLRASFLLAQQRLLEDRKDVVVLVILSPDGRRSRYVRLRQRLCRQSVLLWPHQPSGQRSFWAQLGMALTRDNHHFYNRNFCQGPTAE
As to the kind of experiment: TLR9 inhibition reporter assay (HEK-Blue cells, SEAP reporter, ODN2006 stimulation). As to conditions: HEK-Blue cells overexpressing human TLR9, SEAP reporter, ODN2006 5 nM. The method, boiled down:
as §1

`CNC(=O)CNC1CCC(c2ccc3[nH]c(-c4cc(C)c5ncnn5c4)c(C(C)C)c3c2)CC1` (single isomer, unassigned) [Example 162, 2-((4-(3-isopropyl-2-(8-methyl-[1,2,4]triazolo[1,5-a]pyridin-6-yl)-1H-indol-5-yl)cyclohexyl)amino)-N-methylacetamide]: the IC50 is 0.56 nM on human TLR7, 1.2 nM against human TLR8 and 2110 nM on human TLR9.

With `CNC(=O)CNC1CCC(c2ccc3[nH]c(-c4cc(C)c5ncnn5c4)c(C(C)C)c3c2)CC1` (single isomer, unassigned) [Example 163, 2-((4-(3-isopropyl-2-(8-methyl-[1,2,4]triazolo[1,5-a]pyridin-6-yl)-1H-indol-5-yl)cyclohexyl)amino)-N-methylacetamide], the IC50 at human TLR7 stood at 0.63 nM; on human TLR8, 0.64 nM; on human TLR9, 2240 nM.

Regarding `Cc1cc(-c2[nH]c3ccc(C4CCC(C)(O)CC4)cc3c2C(C)C)cc(C)n1` (single isomer, unassigned) [Example 169], the IC50 at human TLR7 stood at 29 nM; against human TLR8, 293 nM; on human TLR9, 41300 nM.

Turning to `Cc1cc(-c2[nH]c3ccc(C4CCC(O)CC4)cc3c2C(C)C)cc(C)n1` (single isomer, unassigned) [Example 171, 4-(2-(2,6-dimethylpyridin-4-yl)-3-isopropyl-1H-indol-5-yl)cyclohexanol], the IC50 at human TLR7 is 27 nM; against human TLR8, 212 nM; on human TLR9 it was > 50000 nM.

For `Cc1cc(-c2[nH]c3ccc(C4CCC(O)CC4)cc3c2C(C)C)cc(C)n1` (single isomer, unassigned) [Example 172, 4-(2-(2,6-dimethylpyridin-4-yl)-3-isopropyl-1H-indol-5-yl)cyclohexanol], the figures for the IC50 against human TLR7, at human TLR8 and against human TLR9 were 8 nM, 35 nM and 15800 nM, respectively.

Turning to `Cc1cc(-c2[nH]c3ccc(C4CCC(N(C)CC(=O)N(C)C)CC4)cc3c2C(C)C)cn2ncnc12` (single isomer, unassigned) [Example 177, 2-((4-(3-isopropyl-2-(8-methyl-[1,2,4]triazolo[1,5-a]pyridin-6-yl)-1H-indol-5-yl)cyclohexyl)(methyl)amino)-N,N-dimethylacetamide], the concentration for half-maximal inhibition (IC50) at human TLR7 is 5 nM; at human TLR8 it was 24 nM; against human TLR9 it was 7020 nM.

As for `Cc1cc(-c2[nH]c3ccc(C4CCC(N(C)CC(=O)N(C)C)CC4)cc3c2C(C)C)cn2ncnc12` (single isomer, unassigned) [Example 178, 2-((4-(3-isopropyl-2-(8-methyl-[1,2,4]triazolo[1,5-a]pyridin-6-yl)-1H-indol-5-yl)cyclohexyl)(methyl)amino)-N,N-dimethylacetamide], the results for the IC50 against human TLR7, against human TLR8 and on human TLR9 were 0.23 nM, 2.4 nM and 1780 nM, respectively.

Consider `CNC(=O)CNC1CCC(c2ccc3[nH]c(-c4cc(C)nc(C)c4)c(C(C)C)c3c2)CC1` (single isomer, unassigned) [Example 179, 2-((4-(2-(2,6-dimethylpyridin-4-yl)-3-isopropyl-1H-indol-5-yl)cyclohexyl)amino)-N-methylacetamide], for which the half-maximal inhibitory concentration (IC50) against human TLR7 came to 2 nM; against human TLR8 it was 3.5 nM; on human TLR9, 767 nM.

On to `CNC(=O)CNC1CCC(c2ccc3[nH]c(-c4cc(C)nc(C)c4)c(C(C)C)c3c2)CC1` (single isomer, unassigned) [Example 180, 2-((4-(2-(2,6-dimethylpyridin-4-yl)-3-isopropyl-1H-indol-5-yl)cyclohexyl)amino)-N-methylacetamide], for which the values for the IC50 on human TLR7, at human TLR8 and against human TLR9 were 2 nM, 4.5 nM and 277 nM, respectively.

On to `COc1cc(-c2[nH]c3ccc(C4CCCNC4)cc3c2C(C)C)cn2ncnc12` (single isomer, unassigned) [Example 182], for which the IC50 against human TLR7 was found to be 1 nM; at human TLR8 it was 5.3 nM; against human TLR9 it was 2370 nM.

The IC50 is the concentration that inhibits the measured activity by half.
